The text below walks through data of ChEMBL document CHEMBL4373723 (J Med Chem, 2019).

Series [1] in a line: Stability in presence of TCEP assessed as disulfide reduction at 20 uM measured over 40 mins at 37 degC by LC-MS analysis. In kind it is physicochemical.
For series [2] the following is noted: 40 min, 20 µM.
Series [3] is filed under the species Homo sapiens. Description: Modulation of Frizzled in human Caco2 cells assessed as protection against 0.25 to 0.5 ng/ml TcdB-induced cell rounding at 50 uM incubated for 24 hrs by phalloidin conjugated AlexaFluor488 dye based fluorescence microscopy relative to control.
The species named for a further series is Cricetulus griseus. Description: Modulation of Frizzled in CHOK1 cells assessed as protection against 5 ng/ml TcdB-induced cell rounding at 50 uM incubated for 24 hrs by phalloidin conjugated AlexaFluor488 dye based fluorescence microscopy relative to control.
For series [4], the target named is T1, Frizzled-7 (Homo sapiens, UniProt O75084). Kind of series: Inhibition of Frizzled-7 in HEK293 cells expressing Wnt assessed as reduction in Wnt signaling by firefly luciferase reporter gene assay. In kind it is cell-based.
Series [5] has as its target T1, Frizzled-7. Kind of series: biochemical. The format is cell-based, CHO. The settings on record: read-out: Kd.
The nature of series [6]: Binding affinity to recombinant human/mouse Frizzled-2 (Gln29 to Leu168 residues)/human IgG1 chimeric protein expressed in mouse NS0 cells assessed as reduction in interaction of TcdB with FZD7 incubated for 1 hr by competition ELISA. In kind it is cell-based. (An ELISA detects its analyte on a solid surface through an enzyme-linked reagent.)
The species named for series [7] is Homo sapiens. Description: Modulation of Frizzled in human Caco2 cells assessed as protection against 0.1 to 1 ng/ml TcdB-induced cell rounding incubated for 24 hrs by phalloidin conjugated AlexaFluor488 dye based fluorescence microscopy relative to control.
For series [8] the following is noted: mouse, serum, 24 h, 200 µM.
For series [9] the following is noted: 40 min, 20 µM. This is another data set of the same source.
Series [10] is filed under the species Homo sapiens. Kind of series: Modulation of Frizzled in human Caco2 cells assessed as protection against 4 ng/ml TcdB-induced cell rounding at 50 uM incubated for 24 hrs by phalloidin conjugated AlexaFluor488 dye based fluorescence microscopy relative to control.
The species entered for series [11] is Homo sapiens. Description: Modulation of Frizzled in human Caco2 cells assessed as protection against TcdB-induced cell rounding incubated for 24 hrs by phalloidin conjugated AlexaFluor488 dye based fluorescence microscopy.
Series [12] in a line: Stability in cell culture medium containing 10% fetal bovine serum at 200 uM at 37 degC measured over 24 hrs by LC-MS analysis. In kind it is ADME, cell-free, Bos taurus. The conditions noted are these: cattle.
The target of series [13] is T1, Frizzled-7. Description: Binding affinity to recombinant human Frizzled-7 (Gln33 to Leu185 residues)/human IgG1 chimeric protein expressed in CHO cells assessed as reduction in interaction of TcdB with FZD7 incubated for 1 hr by competition ELISA. The format is cell-based.
For series [14], the target named is T1, Frizzled-7. The settings on record: CHO.
Series [15] has as its target T1, Frizzled-7. The format is cell-based. The conditions noted are these: cho.
The target in series [16] is T1, Frizzled-7. Description: Binding affinity to recombinant human Frizzled-7 (Gln33 to Leu185 residues)/human IgG1 chimeric protein expressed in CHO cells assessed as association rate constant by SPR assay. In kind it is cell-based. (In SPR one partner is held on a chip, and binding of the other changes the refractive index at the surface.)

Activity calls are given as the source filed them. The calls are words filed in the database; no cut-off is given here.

Broadly, the IC50 is the concentration needed to halve the response being measured. As for `CC[C@H](C)[C@H](NC(=O)[C@H](Cc1cnc[nH]1)NC(=O)[C@H](CSSC[C@H](NC(=O)[C@H](Cc1c[nH]c2ccccc12)NC(=O)[C@H](CC(C)C)NC(=O)[C@H](CCC(=O)O)NC(=O)[C@H](CC(C)C)NC(=O)[C@H](CC(=O)O)NC(=O)[C@H](CC(=O)O)NC(=O)[C@@H](NC(C)=O)[C@H](C)O)C(=O)N[C@@H](Cc1cnc[nH]1)C(=O)N[C@H](C(=O)N[C@@H](CCSC)C(=O)N[C@@H](Cc1ccc(O)cc1)C(N)=O)[C@@H](C)CC)NC(=O)[C@H](Cc1c[nH]c2ccccc12)NC(=O)[C@H](CC(C)C)NC(=O)[C@H](CCC(=O)O)NC(=O)[C@H](CC(C)C)NC(=O)[C@H](CC(=O)O)NC(=O)[C@H](CC(=O)O)NC(=O)[C@@H](NC(C)=O)[C@H](C)O)C(=O)N[C@@H](CCSC)C(=O)N[C@@H](Cc1ccc(O)cc1)C(N)=O`, the Stability entry in series [1] is “Unstable”; in series [2], “Unstable”; in series [8], “Stable”; in series [9], “Unstable”; in series [12] it was “Stable”. The outcome in the series filed under Homo sapiens [3] and in the series listed under Cricetulus griseus was Active. Besides, at Frizzled-7 [4], the half-inhibitory concentration (IC50) worked out at 9.2 nM. Besides, the Kd turned out to be 0.039 nM on Frizzled-7 [5] and 0.64 ×10⁻³ /s at Frizzled-7 [15]. The inhibition result (in [6]; in the series filed under Homo sapiens [11]; at Frizzled-7 [13]) was “Dose-dependent effect” throughout. Besides, the Activity in the series filed under Homo sapiens [7] lay in the range of 34 to 69%. Also, in the series listed under Homo sapiens [10], the outcome was inactive. At Frizzled-7 [14], this molecule gave a Ka of 166 ×10⁵ /M/s.
On to `CC[C@H](C)[C@H](NC(=O)[C@H](Cc1cnc[nH]1)NC(=O)[C@H](CSSCC[C@H](NC(=O)[C@H](Cc1c[nH]c2ccccc12)NC(=O)[C@H](CC(C)C)NC(=O)[C@H](CCC(=O)O)NC(=O)[C@H](CC(C)C)NC(=O)[C@H](CC(=O)O)NC(=O)[C@H](CC(=O)O)NC(=O)[C@@H](NC(C)=O)[C@@H](C)O)C(=O)N[C@@H](Cc1cnc[nH]1)C(=O)N[C@H](C(=O)N[C@@H](CCSC)C(=O)N[C@@H](Cc1ccc(O)cc1)C(N)=O)[C@@H](C)CC)NC(=O)[C@H](Cc1c[nH]c2ccccc12)NC(=O)[C@H](CC(C)C)NC(=O)[C@H](CCC(=O)O)NC(=O)[C@H](CC(C)C)NC(=O)[C@H](CC(=O)O)NC(=O)[C@H](CC(=O)O)NC(=O)[C@@H](NC(C)=O)[C@H](C)O)C(=O)N[C@@H](CCSC)C(=O)N[C@@H](Cc1ccc(O)cc1)C(N)=O`, for which the Stability entry in [1], in [2] and in series [8] was “Stable” throughout. Further, the figures for the Kd at Frizzled-7 [5] and on Frizzled-7 [15] were 0.37 nM and 6.3 ×10⁻³ /s, respectively. For the same molecule, the “association rate constant (ka)” value at Frizzled-7 [16] came out at 1.7 ×10⁷ /M/s.
